Converted amounts (≈) assume the structure as drawn. The source made the active and inactive calls. The calls are words filed in the database; no cut-off is given here.
Experiments:
[1] = Cytotoxicity against human PANC1 cells after 48 hrs by MTT assay; type: cell-based, PANC-1; conditions: for GI50 at 48 h: PANC-1 cells; for GI90: panc-1, 48 h
[2] = (§1) Cytotoxicity against human THP1 cells after 48 hrs by MTT assay; type: cell-based, THP-1; conditions: THP-1 cells
THP-1 = experiment: as §1; type: cell-based; conditions: thp-1, 48 h
[3] = system: Mycobacterium tuberculosis; experiment: Anti-tubercular activity against rifampicin, isoniazid, ethambutol and pyrazinamide-sensitive active phage of Mycobacterium tuberculosis H37Ra ATCC 25177 infected in human THP1 cells by neutral red assay; type: functional, organism-based; conditions: H37Ra ATCC 25177, THP-1
[4] = system: Mycobacterium tuberculosis; experiment: Anti-tubercular activity against rifampicin, isoniazid, ethambutol and pyrazinamide-sensitive active phage of Mycobacterium tuberculosis H37Ra ATCC 25177 by serial dilution method; type: functional, organism-based
[5] = system: Mycobacterium tuberculosis; experiment: Anti-tubercular activity against rifampicin, isoniazid, ethambutol and pyrazinamide-sensitive Mycobacterium tuberculosis H37Ra ATCC 25177 assessed as growth inhibition at 10 ug/ml by XRMA method relative to control; type: functional; conditions: read-out: GI
Staphylococcus aureus = experiment: Antibacterial activity against Staphylococcus aureus ATCC 29213 assessed as growth inhibition at 30 ug/ml relative to control; type: functional; conditions: for inhibition of growth at 30 µg/mL: read-out: GI
[6] = system: Mycobacterium tuberculosis; experiment: Anti-tubercular activity against rifampicin, isoniazid, ethambutol and pyrazinamide-sensitive dormant phage of Mycobacterium tuberculosis H37Ra ATCC 25177 infected in human THP1 cells by neutral red assay; type: functional, organism-based; conditions: H37Ra ATCC 25177, THP-1
Pseudomonas fluorescens = experiment: Antibacterial activity against Pseudomonas fluorescens ATCC 13525 assessed as growth inhibition at 30 ug/ml relative to control; type: functional; conditions: for inhibition of growth at 30 µg/mL: read-out: GI
Bacillus subtilis = experiment: Antibacterial activity against Bacillus subtilis ATCC 23857 assessed as growth inhibition at 30 ug/ml relative to control; type: functional; conditions: for inhibition of growth at 30 µg/mL: read-out: GI
[7] = system: Mycobacterium tuberculosis; experiment: Anti-tubercular activity against rifampicin, isoniazid, ethambutol and pyrazinamide-sensitive dormant phage of Mycobacterium tuberculosis H37Ra ATCC 25177 by serial dilution method; type: functional, organism-based
[8] = system: Mycobacterium tuberculosis; experiment: Anti-tubercular activity against rifampicin, isoniazid, ethambutol and pyrazinamide-sensitive Mycobacterium tuberculosis H37Ra ATCC 25177 assessed as growth inhibition at 3 ug/ml by XRMA method relative to control; type: functional; conditions: for inhibition of growth at 3 µg/mL: read-out: GI
[9] = (§2) Cytotoxicity against human A549 cells after 48 hrs by MTT assay; type: cell-based; conditions: A549 cells
A549 = experiment: as §2; type: cell-based; conditions: a549, 48 h
Escherichia coli = experiment: Antibacterial activity against Escherichia coli […] assessed as growth inhibition at 30 ug/ml relative to control; type: functional; conditions: for inhibition of growth at 30 µg/mL: read-out: GI
[10] = system: Mycobacterium tuberculosis; experiment: Anti-tubercular activity against rifampicin, isoniazid, ethambutol and pyrazinamide-sensitive Mycobacterium tuberculosis H37Ra ATCC 25177 assessed as growth inhibition at 30 ug/ml by XRMA method relative to control; type: functional; conditions: read-out: GI

Structure (SMILES) | GI50 at 48 h [1] | GI90 [1] | GI50 at 48 h [2] | GI90 (THP-1) | IC50 [3] | IC90 [3] | IC50 [4] | IC90 [4] | inhibition of growth at 10 µg/mL [5] | IC50 [6] | IC90 [6] | inhibition of growth at 30 µg/mL (Pseudomonas fluorescens) | inhibition of growth at 30 µg/mL (Bacillus subtilis) | IC50 [7] | IC90 [7] | inhibition of growth at 3 µg/mL [8] | GI50 at 48 h [9] | GI90 (A549) | inhibition of growth at 30 µg/mL (Escherichia coli) | inhibition of growth at 30 µg/mL [10] | further results
COC(=O)CC[C@@H](C)[C@H]1CC[C@H]2[C@H]3[C@H]([C@H](n4nnc5ccccc54)C(=O)[C@]12C)[C@@]1(C)CC[C@@H](OC(C)=O)C[C@H]1C[C@H]3OC(C)=O | 50 µg/mL (≈ 80.4 µM) | > 100 µg/mL | 29.9 µg/mL (≈ 48.1 µM) | > 100 µg/mL | 1.11 µg/mL (≈ 1.79 µM) | 8.6 µg/mL (≈ 13.8 µM) | 1.08 µg/mL (≈ 1.74 µM) | 9.79 µg/mL (≈ 15.7 µM) | 94% | 1.65 µg/mL (≈ 2.65 µM) | 8.16 µg/mL (≈ 13.1 µM) | 46.8% | 8.94% | 1.27 µg/mL (≈ 2.04 µM) | 7.15 µg/mL (≈ 11.5 µM) | 76% | 20 µg/mL (≈ 32.2 µM) | > 100 µg/mL | 33.8% | 96% | growth inhibition (GI) (Staphylococcus aureus): inactive
CC(=O)O[C@H]1C(=O)[C@@]2(C)[C@H]([C@H](OC(=O)c3ccccc3)[C@]3(O)C[C@H](OC(=O)[C@H](O)[C@@H](NC(=O)c4ccccc4)c4ccccc4)C(C)=C1C3(C)C)[C@]1(OC(C)=O)CO[C@@H]1C[C@@H]2O [PACLITAXEL] | 0.128 µg/mL (≈ 0.15 µM) | 5.715 µg/mL (≈ 6.69 µM) | 0.137 µg/mL (≈ 0.161 µM) | 5.814 µg/mL (≈ 6.81 µM) | – | – | – | – | – | – | – | – | – | – | – | – | 0.0035 µg/mL (≈ 0.0041 µM) | 0.0706 µg/mL (≈ 0.0827 µM) | – | – | –
CCCCCCc1cn([C@@H]2C(=O)[C@]3(C)[C@@H]([C@H](C)CCC(=O)OC)CC[C@H]3[C@H]3[C@H]2[C@@]2(C)CC[C@@H](OC(C)=O)C[C@H]2C[C@H]3OC(C)=O)nn1 | > 100 µg/mL | > 100 µg/mL | > 100 µg/mL | > 100 µg/mL | 0.25 µg/mL (≈ 0.381 µM) | 2.8 µg/mL (≈ 4.27 µM) | 0.64 µg/mL (≈ 0.976 µM) | 2.63 µg/mL (≈ 4.01 µM) | 96% | 0.13 µg/mL (≈ 0.198 µM) | 1.55 µg/mL (≈ 2.36 µM) | – | 22.9% | 0.17 µg/mL (≈ 0.259 µM) | 2.43 µg/mL (≈ 3.7 µM) | 91% | > 100 µg/mL | > 100 µg/mL | – | 97% | growth inhibition (GI) (Staphylococcus aureus): inactive; growth inhibition (GI) (Pseudomonas fluorescens): inactive; growth inhibition (GI) (Escherichia coli): inactive
COC(=O)CC[C@@H](C)[C@H]1CC[C@H]2[C@H]3[C@H]([C@H](N)C(=O)[C@]12C)[C@@]1(C)CC[C@@H](OC(C)=O)C[C@H]1C[C@H]3OC(C)=O | – | – | – | – | – | – | – | – | < 1% | – | – | – | – | – | – | – | – | – | – | < 1% | growth inhibition (GI) [8]: inactive
C[C@H](CCC(=O)O)[C@H]1CC[C@H]2[C@@H]3[C@H](O)C[C@@H]4C[C@H](O)CC[C@]4(C)[C@H]3C[C@H](O)[C@]12C [CHOLIC ACID] | – | – | – | – | – | – | – | – | 36% | – | – | – | – | – | – | – | – | – | – | 53% | growth inhibition (GI) [8]: inactive
CO[C@H]1/C=C/O[C@@]2(C)Oc3c(C)c(O)c4c(O)c(c(/C=N/N5CCN(C)CC5)c(O)c4c3C2=O)NC(=O)/C(C)=C\C=C\[C@H](C)[C@H](O)[C@@H](C)[C@@H](O)[C@@H](C)[C@H](OC(C)=O)[C@@H]1C [RIFAMPIN] | – | – | – | – | 0.0021 µg/mL (≈ 0.00255 µM) | 0.051 µg/mL (≈ 0.062 µM) | 0.0018 µg/mL (≈ 0.00219 µM) | 0.048 µg/mL (≈ 0.0583 µM) | – | 0.0018 µg/mL (≈ 0.00219 µM) | 0.048 µg/mL (≈ 0.0583 µM) | – | – | 0.0014 µg/mL (≈ 0.0017 µM) | 0.043 µg/mL (≈ 0.0523 µM) | – | – | – | – | – | –
COC(=O)CC[C@@H](C)[C@H]1CC[C@H]2[C@H]3[C@H]([C@H](NC(C)C)C(=O)[C@]12C)[C@@]1(C)CC[C@@H](OC(C)=O)C[C@H]1C[C@H]3OC(C)=O | – | – | – | – | – | – | – | – | 71% | – | – | 37.2% | 4.79% | – | – | 66% | – | – | 31.9% | 84% | inhibition of growth at 30 µg/mL (Staphylococcus aureus): 16.4%
CCOC(=O)N[C@@H]1C(=O)[C@]2(C)[C@@H]([C@H](C)CCC(=O)OC)CC[C@H]2[C@H]2[C@H]1[C@@]1(C)CC[C@@H](OC(C)=O)C[C@H]1C[C@H]2OC(C)=O | – | – | – | – | – | – | – | – | 73% | – | – | 54.5% | – | – | – | 66% | – | – | 46.7% | 86% | inhibition of growth at 30 µg/mL (Staphylococcus aureus): 17.3%; growth inhibition (GI) (Bacillus subtilis): inactive

From ChEMBL document CHEMBL3616451, “Design and synthesis of 11α-substituted bile acid derivatives as potential anti-tuberculosis agents” (Bioorg Med Chem Lett, 2015)
